The kinase profiling compilation of Christmann-Franck et al. (2016)

Legend:
Assay in all cases: radiometric filter-binding kinase assay, Kinase HotSpot
Details in all cases: compound 0.5 µM; ATP 10 µM
STK33 (human) = STK33 (human) (UniProt Q9BYT3)
ALK (human) = ALK (human) (UniProt Q9UM73)
EPHA7 (human) = EPHA7 (human) (UniProt Q15375)
EPHA3 (human) = EPHA3 (human) (UniProt P29320)
PKN2 (human) = PKN2 (human) (UniProt Q16513)
MST1R (human) = MST1R (human) (UniProt Q04912)
CDK4 CCND3 (human) = CDK4 CCND3 (human) (UniProt P30281+P11802)
RPS6KA6 KD1 KD2 (human) = RPS6KA6 KD1 KD2 (human) (UniProt Q9UK32)
NLK (human) = NLK (human) (UniProt Q9UBE8)
FRK (human) = FRK (human) (UniProt P42685)
PAK4 (human) = PAK4 (human) (UniProt O96013)
MINK1 (human) = MINK1 (human) (UniProt Q8N4C8)
MUSK (human) = MUSK (human) (UniProt O15146)
PHKG1 (human) = PHKG1 (human) (UniProt Q16816)
OXSR1 (human) = OXSR1 (human) (UniProt O95747)
GSG2 (human) = GSG2 (human) (UniProt Q8TF76)
CAMK4 (human) = CAMK4 (human) (UniProt Q16566)
CAMK1D (human) = CAMK1D (human) (UniProt Q8IU85)
TAOK1 (human) = TAOK1 (human) (UniProt Q7L7X3)
DYRK3 (human) = DYRK3 (human) (UniProt O43781)
TEC (human) = TEC (human) (UniProt P42680)
MAP4K5 (human) = MAP4K5 (human) (UniProt Q9Y4K4)
GSK3A (human) = GSK3A (human) (UniProt P49840)
LCK (human) = LCK (human) (UniProt P06239)
TSSK1B (human) = TSSK1B (human) (UniProt Q9BXA7)
MAPKAPK5 (human) = MAPKAPK5 (human) (UniProt Q8IW41)
MAPKAPK3 (human) = MAPKAPK3 (human) (UniProt Q16644)
MARK1 (human) = MARK1 (human) (UniProt Q9P0L2)
FLT1 (human) = FLT1 (human) (UniProt P17948)
NEK9 (human) = NEK9 (human) (UniProt Q8TD19)
ROS1 (human) = ROS1 (human) (UniProt P08922)
ZAP70 (human) = ZAP70 (human) (UniProt P43403)
TAOK2 (human) = TAOK2 (human) (UniProt Q9UL54)
PRKCZ (human) = PRKCZ (human) (UniProt Q05513)
EPHA1 (human) = EPHA1 (human) (UniProt P21709)
AKT1 (human) = AKT1 (human) (UniProt P31749)
ACVRL1 (human) = ACVRL1 (human) (UniProt P37023)
STK39 (human) = STK39 (human) (UniProt Q9UEW8)
HIPK2 (human) = HIPK2 (human) (UniProt Q9H2X6)
CSF1R (human) = CSF1R (human) (UniProt P07333)
GRK7 (human) = GRK7 (human) (UniProt Q8WTQ7)
SRC (human) = SRC (human) (UniProt P12931)

Sequence of MST1R (human) (Q04912 whole entry, looked up): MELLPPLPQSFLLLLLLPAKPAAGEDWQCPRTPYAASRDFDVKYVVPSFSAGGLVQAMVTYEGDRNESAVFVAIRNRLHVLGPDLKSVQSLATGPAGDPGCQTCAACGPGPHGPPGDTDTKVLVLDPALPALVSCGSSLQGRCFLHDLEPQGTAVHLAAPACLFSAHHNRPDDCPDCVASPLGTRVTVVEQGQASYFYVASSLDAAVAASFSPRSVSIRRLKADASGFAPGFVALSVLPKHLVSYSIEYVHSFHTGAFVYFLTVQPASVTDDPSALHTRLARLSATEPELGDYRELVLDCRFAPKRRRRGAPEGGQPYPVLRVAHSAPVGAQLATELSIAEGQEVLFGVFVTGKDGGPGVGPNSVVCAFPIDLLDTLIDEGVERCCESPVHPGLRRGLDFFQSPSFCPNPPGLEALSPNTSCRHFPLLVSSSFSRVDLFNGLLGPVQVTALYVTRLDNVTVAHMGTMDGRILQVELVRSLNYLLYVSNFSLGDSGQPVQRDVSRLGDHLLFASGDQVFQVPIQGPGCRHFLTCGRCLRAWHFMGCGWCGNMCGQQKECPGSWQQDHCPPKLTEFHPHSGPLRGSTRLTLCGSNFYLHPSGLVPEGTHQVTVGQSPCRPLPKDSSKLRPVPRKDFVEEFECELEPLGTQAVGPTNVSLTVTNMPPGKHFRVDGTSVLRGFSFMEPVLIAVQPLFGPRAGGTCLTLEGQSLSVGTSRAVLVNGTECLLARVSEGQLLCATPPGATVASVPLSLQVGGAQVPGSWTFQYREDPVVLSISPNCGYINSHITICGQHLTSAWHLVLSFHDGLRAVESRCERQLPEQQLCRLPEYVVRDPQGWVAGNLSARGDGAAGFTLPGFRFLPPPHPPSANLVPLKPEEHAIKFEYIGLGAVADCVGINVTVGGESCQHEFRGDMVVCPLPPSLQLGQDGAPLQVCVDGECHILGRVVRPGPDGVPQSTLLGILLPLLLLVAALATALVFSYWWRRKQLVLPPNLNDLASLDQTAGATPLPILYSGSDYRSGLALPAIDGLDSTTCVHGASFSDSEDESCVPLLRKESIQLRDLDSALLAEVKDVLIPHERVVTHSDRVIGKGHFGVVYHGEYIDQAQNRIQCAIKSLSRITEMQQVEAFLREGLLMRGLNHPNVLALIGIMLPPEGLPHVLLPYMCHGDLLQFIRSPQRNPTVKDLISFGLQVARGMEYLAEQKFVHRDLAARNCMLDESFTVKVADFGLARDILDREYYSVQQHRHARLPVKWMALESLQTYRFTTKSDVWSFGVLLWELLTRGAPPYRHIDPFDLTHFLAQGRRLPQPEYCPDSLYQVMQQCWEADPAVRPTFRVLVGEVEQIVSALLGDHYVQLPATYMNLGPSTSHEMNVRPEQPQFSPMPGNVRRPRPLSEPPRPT
Sequence of TAOK1 (human) (Q7L7X3 whole entry, looked up): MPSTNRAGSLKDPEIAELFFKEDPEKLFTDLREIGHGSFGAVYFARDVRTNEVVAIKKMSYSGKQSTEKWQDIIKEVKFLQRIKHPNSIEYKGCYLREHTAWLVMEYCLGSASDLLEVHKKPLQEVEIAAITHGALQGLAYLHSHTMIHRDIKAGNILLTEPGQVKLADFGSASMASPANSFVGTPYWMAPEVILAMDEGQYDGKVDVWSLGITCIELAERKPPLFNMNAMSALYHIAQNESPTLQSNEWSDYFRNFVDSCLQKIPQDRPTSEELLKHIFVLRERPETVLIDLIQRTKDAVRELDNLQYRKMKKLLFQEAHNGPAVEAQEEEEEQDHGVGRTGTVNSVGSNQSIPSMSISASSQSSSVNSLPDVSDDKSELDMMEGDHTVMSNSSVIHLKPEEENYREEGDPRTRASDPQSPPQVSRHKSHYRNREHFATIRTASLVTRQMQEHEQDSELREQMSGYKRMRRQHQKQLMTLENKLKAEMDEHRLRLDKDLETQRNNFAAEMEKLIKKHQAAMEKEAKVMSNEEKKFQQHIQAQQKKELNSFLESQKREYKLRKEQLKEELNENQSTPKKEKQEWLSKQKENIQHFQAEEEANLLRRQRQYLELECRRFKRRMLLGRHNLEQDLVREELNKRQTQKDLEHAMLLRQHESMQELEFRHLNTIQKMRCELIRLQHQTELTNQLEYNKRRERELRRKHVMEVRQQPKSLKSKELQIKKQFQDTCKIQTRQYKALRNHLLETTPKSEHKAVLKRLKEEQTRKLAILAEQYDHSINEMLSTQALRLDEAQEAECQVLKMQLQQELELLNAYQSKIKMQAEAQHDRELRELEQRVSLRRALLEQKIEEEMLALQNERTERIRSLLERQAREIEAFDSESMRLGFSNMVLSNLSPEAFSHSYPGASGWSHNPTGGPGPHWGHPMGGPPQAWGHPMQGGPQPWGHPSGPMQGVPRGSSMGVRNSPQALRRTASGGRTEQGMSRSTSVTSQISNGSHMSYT
Sequence of CDK4 CCND3 (human) (P11802 whole entry, looked up): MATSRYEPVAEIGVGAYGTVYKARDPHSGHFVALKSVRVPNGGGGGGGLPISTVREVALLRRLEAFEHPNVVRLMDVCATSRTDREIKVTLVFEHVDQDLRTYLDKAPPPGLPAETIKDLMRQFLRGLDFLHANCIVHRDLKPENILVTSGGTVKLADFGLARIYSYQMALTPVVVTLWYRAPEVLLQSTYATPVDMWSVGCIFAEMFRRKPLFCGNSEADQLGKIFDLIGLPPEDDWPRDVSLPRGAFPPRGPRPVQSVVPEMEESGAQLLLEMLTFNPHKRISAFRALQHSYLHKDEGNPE
Sequence of CDK4 CCND3 (human) (P30281 whole entry, looked up): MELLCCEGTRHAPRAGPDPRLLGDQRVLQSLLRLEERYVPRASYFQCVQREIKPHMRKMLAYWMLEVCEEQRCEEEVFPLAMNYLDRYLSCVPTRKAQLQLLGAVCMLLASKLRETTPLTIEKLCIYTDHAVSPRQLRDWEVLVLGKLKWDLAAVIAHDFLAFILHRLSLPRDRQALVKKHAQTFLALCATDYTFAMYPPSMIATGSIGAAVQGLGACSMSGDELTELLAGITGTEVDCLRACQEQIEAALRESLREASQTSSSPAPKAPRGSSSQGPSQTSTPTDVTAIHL
Sequence of EPHA3 (human) (P29320 whole entry, looked up): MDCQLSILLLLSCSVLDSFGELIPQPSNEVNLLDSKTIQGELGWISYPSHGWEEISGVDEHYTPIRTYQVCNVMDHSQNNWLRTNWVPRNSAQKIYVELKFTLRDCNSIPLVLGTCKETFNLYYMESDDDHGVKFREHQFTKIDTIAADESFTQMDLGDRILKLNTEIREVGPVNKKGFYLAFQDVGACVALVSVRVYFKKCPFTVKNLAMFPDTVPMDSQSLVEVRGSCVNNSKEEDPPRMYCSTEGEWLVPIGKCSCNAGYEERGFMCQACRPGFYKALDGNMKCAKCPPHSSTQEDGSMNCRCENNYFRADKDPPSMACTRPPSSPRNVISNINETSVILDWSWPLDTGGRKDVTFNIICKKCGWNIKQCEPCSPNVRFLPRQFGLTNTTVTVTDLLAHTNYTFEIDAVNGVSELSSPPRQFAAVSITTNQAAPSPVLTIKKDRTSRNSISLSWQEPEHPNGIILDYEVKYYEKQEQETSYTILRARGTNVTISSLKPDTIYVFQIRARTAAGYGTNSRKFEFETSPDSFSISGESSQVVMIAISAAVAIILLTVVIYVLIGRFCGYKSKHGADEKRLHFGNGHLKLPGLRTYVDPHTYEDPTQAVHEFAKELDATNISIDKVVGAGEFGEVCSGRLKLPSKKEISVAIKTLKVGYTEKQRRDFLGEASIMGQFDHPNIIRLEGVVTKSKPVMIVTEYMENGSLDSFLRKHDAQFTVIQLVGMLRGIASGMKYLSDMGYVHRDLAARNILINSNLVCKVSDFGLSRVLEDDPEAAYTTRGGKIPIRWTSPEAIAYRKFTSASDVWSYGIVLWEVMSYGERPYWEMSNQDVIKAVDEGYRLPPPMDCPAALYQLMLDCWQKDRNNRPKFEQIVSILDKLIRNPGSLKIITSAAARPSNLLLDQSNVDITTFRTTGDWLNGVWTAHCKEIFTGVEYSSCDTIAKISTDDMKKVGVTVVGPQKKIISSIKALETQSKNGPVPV
Sequence of LCK (human) (P06239 whole entry, looked up): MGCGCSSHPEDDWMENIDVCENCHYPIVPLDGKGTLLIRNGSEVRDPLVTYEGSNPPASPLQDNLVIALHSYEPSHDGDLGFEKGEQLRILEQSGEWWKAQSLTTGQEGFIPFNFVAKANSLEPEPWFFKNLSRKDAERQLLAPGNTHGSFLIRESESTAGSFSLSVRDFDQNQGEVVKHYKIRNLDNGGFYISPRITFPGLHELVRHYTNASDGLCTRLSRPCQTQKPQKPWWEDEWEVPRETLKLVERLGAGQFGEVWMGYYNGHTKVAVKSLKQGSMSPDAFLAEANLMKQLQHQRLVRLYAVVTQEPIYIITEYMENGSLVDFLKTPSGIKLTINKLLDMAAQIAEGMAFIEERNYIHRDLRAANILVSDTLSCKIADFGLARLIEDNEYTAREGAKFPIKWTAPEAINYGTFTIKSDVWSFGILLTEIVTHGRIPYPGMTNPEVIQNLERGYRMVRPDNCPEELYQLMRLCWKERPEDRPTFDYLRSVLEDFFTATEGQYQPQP
Sequence of GSK3A (human) (P49840 whole entry, looked up): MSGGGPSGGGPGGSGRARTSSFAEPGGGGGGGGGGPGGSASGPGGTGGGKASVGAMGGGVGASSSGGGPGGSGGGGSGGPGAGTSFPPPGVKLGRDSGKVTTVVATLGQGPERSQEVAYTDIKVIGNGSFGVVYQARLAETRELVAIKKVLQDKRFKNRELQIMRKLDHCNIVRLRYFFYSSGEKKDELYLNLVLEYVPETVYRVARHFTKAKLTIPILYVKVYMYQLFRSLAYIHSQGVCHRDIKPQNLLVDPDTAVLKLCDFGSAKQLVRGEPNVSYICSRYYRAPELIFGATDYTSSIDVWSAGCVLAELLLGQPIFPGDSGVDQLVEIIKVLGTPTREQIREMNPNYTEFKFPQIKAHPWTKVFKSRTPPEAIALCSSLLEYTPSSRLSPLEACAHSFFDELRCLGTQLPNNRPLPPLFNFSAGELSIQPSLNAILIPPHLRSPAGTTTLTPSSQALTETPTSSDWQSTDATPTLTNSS

Nc1n[nH]c2nnc(-c3c(-c4ccccc4)nn4ccccc34)cc12
residual activity (STK33 (human)): 100%
residual activity (ALK (human)): 108%
residual activity (EPHA7 (human)): 99.5%
residual activity (EPHA3 (human)): 97.8%
residual activity (PKN2 (human)): 98.9%
residual activity (MST1R (human)): 102%
residual activity (CDK4 CCND3 (human)): 100%
residual activity (RPS6KA6 KD1 KD2 (human)): 95.5%
residual activity (NLK (human)): 102%
residual activity (FRK (human)): 101%
residual activity (PAK4 (human)): 101%
residual activity (MINK1 (human)): 73%
residual activity (MUSK (human)): 96.8%
residual activity (PHKG1 (human)): 101%
residual activity (OXSR1 (human)): 102%
residual activity (GSG2 (human)): 97.1%
residual activity (CAMK4 (human)): 94.2%
residual activity (CAMK1D (human)): 95.9%
residual activity (TAOK1 (human)): 95.8%
residual activity (DYRK3 (human)): 99.8%
residual activity (TEC (human)): 96.1%
residual activity (MAP4K5 (human)): 50.3%
residual activity (GSK3A (human)): 81.2%
residual activity (LCK (human)): 95.1%
residual activity (TSSK1B (human)): 102%
residual activity (MAPKAPK5 (human)): 97.7%
residual activity (MAPKAPK3 (human)): 103%
residual activity (MARK1 (human)): 98%
residual activity (FLT1 (human)): 96.7%
residual activity (NEK9 (human)): 93.4%
residual activity (ROS1 (human)): 80.2%
residual activity (ZAP70 (human)): 90.1%
residual activity (TAOK2 (human)): 101%
residual activity (PRKCZ (human)): 83.9%
residual activity (EPHA1 (human)): 92.6%
residual activity (AKT1 (human)): 98%
residual activity (ACVRL1 (human)): 106%
residual activity (STK39 (human)): 89.1%
residual activity (HIPK2 (human)): 104%
residual activity (CSF1R (human)): 96.8%
residual activity (GRK7 (human)): 96.7%
residual activity (SRC (human)): 100%
